Consider 5 compounds from ChEMBL document CHEMBL1152637, “Synthesis and evaluation of non-hydrolyzable D-mannose 6-phosphate surrogates reveal 6-deoxy-6-dicarboxymethyl-D-mannose as a new strong inhibitor of phosphomannose isomerases” (Bioorg Med Chem, 2009).

The source made the active and inactive calls. No cut-off for these calls is given here.

In assay [1] the target is T1, Mannose-6-phosphate isomerase (Escherichia coli (strain K12), UniProt P00946).
T1 sequence (P00946 whole entry): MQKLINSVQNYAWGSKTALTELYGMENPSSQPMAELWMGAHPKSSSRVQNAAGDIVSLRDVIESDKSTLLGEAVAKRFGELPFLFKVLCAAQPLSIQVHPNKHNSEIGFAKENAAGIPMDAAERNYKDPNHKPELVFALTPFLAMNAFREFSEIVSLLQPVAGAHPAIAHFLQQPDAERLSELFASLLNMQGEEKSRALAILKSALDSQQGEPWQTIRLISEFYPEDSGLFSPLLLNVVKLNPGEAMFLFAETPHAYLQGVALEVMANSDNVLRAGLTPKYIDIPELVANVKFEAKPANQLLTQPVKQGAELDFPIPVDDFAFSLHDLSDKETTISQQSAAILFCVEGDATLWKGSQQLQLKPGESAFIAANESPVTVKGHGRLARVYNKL
Description: Inhibition of Escherichia coli type I phosphomannose isomerase assessed as D-mannose 6-phosphate to D-fructose 6-phosphate isomerization at pH 7.1 by PGI/G6PDH coupled enzyme spectrophotometric assay.

Assay [2] has as its target T2, Mannose-6-phosphate isomerase (Saccharomyces cerevisiae, UniProt P29952).
T2 sequence (P29952 whole entry): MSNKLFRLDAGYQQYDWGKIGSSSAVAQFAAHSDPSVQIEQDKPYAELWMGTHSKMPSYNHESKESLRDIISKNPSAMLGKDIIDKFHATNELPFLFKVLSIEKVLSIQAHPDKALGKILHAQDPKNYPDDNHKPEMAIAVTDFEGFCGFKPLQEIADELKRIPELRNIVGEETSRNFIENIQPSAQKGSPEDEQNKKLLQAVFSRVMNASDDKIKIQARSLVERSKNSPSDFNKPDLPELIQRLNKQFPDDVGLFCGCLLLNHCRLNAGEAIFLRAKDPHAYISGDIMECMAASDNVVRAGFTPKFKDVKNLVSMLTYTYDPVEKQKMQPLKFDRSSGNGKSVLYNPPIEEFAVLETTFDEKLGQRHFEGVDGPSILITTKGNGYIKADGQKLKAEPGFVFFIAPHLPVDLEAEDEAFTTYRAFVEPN
The assay is described as follows: Inhibition of Saccharomyces cerevisiae type I phosphomannose isomerase assessed as D-mannose 6-phosphate to D-fructose 6-phosphate isomerization at pH 7.1 by PGI/G6PDH coupled enzyme spectrophotometric assay.

Assay [3] concerns the target T3, Mannose-6-phosphate isomerase (Saccharomyces cerevisiae) (UniProt P29952).
T3 sequence (whole entry): T2 sequence (P29952 whole entry)
Description: Competitive inhibition of Saccharomyces cerevisiae type I phosphomannose isomerase assessed as D-mannose 6-phosphate to D-fructose 6-phosphate isomerization at pH 7.1 by PGI/G6PDH coupled enzyme spectrophotometric assay.

Assay [4] has as its target T4, Mannose-6-phosphate isomerase (Escherichia coli (strain K12)) (UniProt P00946).
T4 sequence (whole entry): T1 sequence (P00946 whole entry)
The assay is described as follows: Competitive inhibition of Escherichia coli type I phosphomannose isomerase assessed as D-mannose 6-phosphate to D-fructose 6-phosphate isomerization at pH 7.1 by PGI/G6PDH coupled enzyme spectrophotometric assay.

With `O=C(O)CC[C@H]1OC(O)[C@@H](O)[C@@H](O)[C@@H]1O` (some centres not stated), the IC50 came to 4600 µM in assay [1] and 900 µM in assay [2].

Regarding `NNC(=O)[C@@H](O)[C@H](O)[C@H](O)CCP(=O)(O)O`, in assay [1], the IC50 is more than 3000 µM.

On to `O=C(O)[C@@H](O)[C@H](O)[C@H](O)CP(=O)(O)O`, for which the concentration for half-maximal inhibition (IC50) in assay [1] was more than 3000 µM.

For the compound `O=C(O)C(C[C@H]1OC(O)[C@@H](O)[C@@H](O)[C@@H]1O)C(=O)O` (some centres not stated), the IC50 was 199 µM in assay [1] and 18.1 µM in assay [2]. Besides, the Ki in assay [1] is 115 µM; in assay [2] it was 10.5 µM. The inhibition result in assay [3] and in assay [4] was “Active” each time.

For `O=C(NO)[C@@H](O)[C@H](O)[C@H](O)CCP(=O)(O)O.ONO.ONO.ONO`, the IC50 in assay [1] came out at 370 µM; in assay [2] it was 2200 µM.

A word on the IC50: it is the concentration that inhibits the measured activity by half. As a reminder, the Ki is a measure of affinity in units of concentration, obtained from inhibition or displacement.
